Patent EP0574185B1, “PGE1 analogs” (NEWPHARMA INTERNATIONAL CORPORATION, priority 1992, dated 1993)

Columns and labels:
[1] = tested on: rat uterus under estrous condition; experiment: C1: effect on PGF2α induced in vitro contraction of rat uterus under estrous condition; settings: PGF2α 10^-8 M, nutrient solution 0,84
Procedure: The experimental conditions were identical to those described in part A for the concentration-response curves without spontaneous contractions.
The uterus was allowed to equilibrate in a 10^-8 M PGF2α solution for 2 minutes, then the uterus was washed again during 15 minutes. This whole treatment was repeated twice.
(§1) Then, a known concentration of the test prostaglandin was added and no washing was carried out during the following 15 minutes. PGF2α (10^-8 M) was added, washing once after 2 minutes and then twice over a total time period of 15 minutes. The result was expressed as the relationship between the effect of PGF2α after the treatment with B-407 and the sum of the effect of PGF2α (mean of the three initial additions) and the effect of B-407 "per se". The recordings of the contractions and their quantitation were performed as described in (A).
* p < 0.05: Tested vs. nutrient solution by ANOVA and Scheffe. ** p < 0.02: Tested vs. nutrient solution by Student's-t-test. Ratio = Effect of PGF2α after B-407/(Effect of PG F2α before B-407 + Effect of B-407). S.E. = Standard Error
The frequency and magnitude of the responses were globally evaluated by calculating the total area recorded at a fixed time period as will be further explained. The areas under the curve of the recording paper, over 15 minutes periods, were cut and weighed both in the concentration-response curves and in the potentiating experiments.
The calibration was made by weighing a piece of paper which corresponded to a tension of 1 g at the working sensitivity along 2 minutes. Therefore, a relationship of area expressed in g/2 min was obtained and then the weights of the areas of the responses were transformed to unities of area. The results were expressed as the mean ± the standard error of the areas obtained. The statistical evaluation of the differences was carried out either by ANOVA or by Student's-t-test, as appropriate.

[2] = tested on: rat uterus under diestrous condition; experiment: C2: effect on PGF2α induced in vitro contraction of rat uterus under diestrous condition; settings: B-407 1x10^-8 M; PGF2α 10^-9M; nutrient solution 1,04; p < 0.02
Procedure: as §1
The experimental conditions were identical to those described in B2 and the working protocol was similar to that of C1 but the PGF2α concentration was of 10^-9M. The recordings of the contractions and their quantitation were performed as described in (A).
* p < 0.05: Tested vs. nutrient solution by ANOVA and Scheffe. ** p < 0.02: Tested vs. nutrient solution by Student's-t-test. Ratio = Effect of PGF2α after B-407/(Effect of PG F2α before B-407 + Effect of B-407). […]
The frequency and magnitude of the responses were globally evaluated by calculating the total area recorded at a fixed time period as will be further explained. […]
The calibration was made by weighing a piece of paper which corresponded to a tension of 1 g at the working sensitivity along 2 minutes. […] The results were expressed as the mean ± the standard error of the areas obtained. […]

Question: How did the “Ratio = Effect of PGF2α after B-407/(Effect of PG F2α before B-407 + Effect of B-407)” value (from here on “Ratio = Effect of PGF2α”) ([1]; B-407 3x10^-7 M, p < 0.05) turn out when CCCCC(C)(O)C/C=C/[C@H]1[C@H](O)CC(=O)[C@@H]1CCCC/C=C/C(=O)OC (mixture of isomers) [B-407, trans-Δ^2-15-deoxy-16-hydroxy-16-methyl PGE1 methyl ester] was run?
Answer: The value was 2,06.

Question: And the “Ratio = Effect of PGF2α” value ([1]; B-407 3x10^-8 M)?
Answer: The value was 1,69.

Question: And the “Ratio = Effect of PGF2α” value ([1]; B-407 3x10^-9 M)?
Answer: Its value is 1,29.

Question: What about the “Ratio = Effect of PGF2α” value [2] of the same compound?
Answer: Its value is 2,35.
